{
  "source": "patent US8383582B2",
  "about": "“Inhibitor against forming biofilm comprising κ-casein macropeptide” (Industry Foundation of Chonnam National University, priority 2010, dated 2013)",
  "format_in_all_cases": "cell-based, Listeria monocytogenes",
  "key": {"L. monocytogenes": {"system": "L. monocytogenes", "test": "Growth yields in MWB at 30° C.", "conditions": "data not shown"}, "[1]": {"system": "L. monocytogenes Scott A to HT-29 cell", "test": "Invasion analysis (gentamicin-based) on HT-29 cells", "conditions": "CMP 0.4 mg/ml, at the lower MOI, 1.5 h 37° C.", "excerpt": "(§1) The human intestinal epithelial cell line HT-29 and the human gastric epithelial cell line AGS were purchased from the Korea Cell Line Bank (KCLB; Seoul, Korea). HT-29 cells have been extensively used as a model system for studying interaction of enteric pathogens with intestinal epithelial cells. All media and fetal bovine serum (FBS) were obtained from Gibco BRL (Life Technologies Inc., Grand Island, N.Y., USA) and JBI (Jeil Biotech services Inc., Seoul, Korea). The HT-29 and AGS cells were grown in RPMI-1640 medium which was supplemented with 10% heat-inactivated FBS. The cells were routinely cultured at 37° C. in 5% CO2 incubator with 6-well or 12-well tissue culture plates for adhesion and invasion assays and in 100-mm-diameter tissue culture plates for RNA isolation.\n(§2) The invasion of epithelial cells by L. monocytogenes Scott A was studied using the gentamicin-based assay described by Bunduki et al. (1993) and Gaillard et al. (1987) with modifications. Briefly, the HT-29 and the AGS cells monolayers (10^6 cells) were inoculated with 100 μl of the L. monocytogenes Scott A suspension (10^8 and 10^6 CFU/ml) and incubated for 1.5 h at 37° C. in the absence or presence of 0.4 mg/ml CMP, respectively. The monolayers were washed with PBS, followed by the addition of 250 μl of 1 mg/ml gentamicin (Sigma) and incubation for an additional 1.5 h. […]"}, "[2]": {"system": "L. monocytogenes Scott A to AGS cell", "test": "Invasion analysis (gentamicin-based) on AGS cells", "conditions": "CMP 0.4 mg/ml, at the lower MOI, 1.5 h 37° C.", "excerpt": "as §1, §2"}, "[3]": {"system": "virulence-associated genes of L. monocytogenes", "test": "Semi-quantitative RT-PCR of virulence-associated genes", "conditions": "0.4 mg/ml CMP; L. monocytogenes Scott A infected HT-29 cells", "protocol": "The regulation of virulence-associated genes was investigated by using semi-quantitative RT-PCR techniques. Total RNA was isolated from the each treated samples using a RNeasy™ Total RNA Kit (Qiagen) with manufacturer's manuals. One μg total RNA was reverse transcribed in 20 μl reaction mixtures with SuperScript™ III First-Strand cDNA Synthesis Kit (Invitrogen, Carlsbad, Calif.). Then, cDNA were then amplified by using Taq DNA polymerase (TaKaRa, Japan). For the iap, denaturation for 5 min at 94° C. was followed by 40 cycles composed of 30 s denaturation at 94° C., 45 s annealing at 60° C. (TABLE 4), and 1 min elongation at 72° C. Except for the iap, denaturation for 5 min at 94° C. was followed by 35 cycles composed of 1 min denaturation at 94° C., 2 min annealing at 60° C. (TABLE 4), and 1 min elongation at 72° C. The last cycle was followed by 10 min final elongation at 72° C. Oligonucleotide (Bioneer, Daejun, Korea) sequences used for the amplification of each gene fragments including expression of proteins (HT-29) are shown in TABLE 4 (Haller et al., 2000). The RT-PCR products were electrophoresed in a 1.5% agarose gel and visualized by ethidium bromide (EtBr) staining. The intensity of each band was determined by densitometric analysis of gels using Kodak DC290 zoom digital camera and Kodak 1D image analysis software (Eastman Kodak Company, Rochester, N.Y., USA)."}},
  "data": [
    {"substance": "κ-casein macropeptide [CMP]", "values": [
      {"measurement": "effect on growth yields", "setting": "L. monocytogenes", "result": "did not significantly affect"},
      {"measurement": "invasion of L. monocytogenes Scott A", "setting": "[1]", "result": "prevented"},
      {"measurement": "invasion of L. monocytogenes Scott A", "setting": "[2]", "result": "prevented"},
      {"measurement": "mRNA level of hlyA", "setting": "[3]", "result": "significantly repressed"},
      {"measurement": "mRNA level of iap", "setting": "[3]", "result": "significantly repressed"},
      {"measurement": "mRNA level of inlA", "setting": "[3]", "result": "significantly repressed"},
      {"measurement": "mRNA level of plcB", "setting": "[3]", "result": "significantly repressed"}
    ]}
  ]
}
